From patent publication US11584747B2, “Substituted pyridopyrimidinonyl compounds useful as T cell activators” (BRISTOL-MYERS SQUIBB COMPANY, priority 2019, dated 2023)
Like-named read-outs stand apart in the source and are kept apart here.

Legend:
human DGKα [1] = molecular target: T1, human DGKα (Homo sapiens (Human), UniProt P23743); test: DGKα ADPGLO assay (detergent/lipid micelle substrate); assay type: biochemical; settings: truncated DGK alpha; read-out: DGK alpha ADPGLO (Truncated) IC50
Description: DGK Alpha ADPGLO (Truncated) IC50 (uM)
The detergent/lipid micelle was prepared by combining 15 g phosphatidylserine (Avanti 840035P) and 1 g diacylglycerol (8008110) and dissolving into 150 mL chloroform in a 2 L round bottom flask. Chloroform was removed under high vacuum by rotary evaporation. […] The lipid/detergent solution was split into 5 mL aliquots and stored at −80° C.

whole blood (pERK) = test: pERK Whole Blood assay (Table A; no whole-blood pERK method described); assay type: cell-based; settings: normalized
human DGKζ = human DGKζ (Homo sapiens (Human), UniProt Q13574); test: DGKζ LIPGLO assay (extruded liposome substrate, ADP-Glo luminescence); assay type: biochemical; settings: liposome assay; read-out: DGK zeta LIPGLO IC50
[2] = system: human venous whole blood (IFN-γ); test: Human whole blood IFN-γ assay; assay type: cell-based; settings: whole blood, normalized to 3 μM reference compound as 100% activation, read-out: IFN-γ Whole Blood Normalized EC50
Description: Human venous whole blood (22.5 μL per well), obtained from healthy donors, was pre-treated with compounds for one hour at 37° C. in a humidified 95% air/5% CO2 incubator. The blood was stimulated with 2.5 μL anti-human CD3 and anti-CD28 mAb at a final concentration of 1 μg/mL each for 24 hours at 37° C. IFN-γ in the supernatants was measured using AlphLISA kit (Cat #AL217).

human DGKα [3] = molecular target: T1, human DGKα; test: DGKα LIPGLO assay (extruded liposome substrate, ADP-Glo luminescence); assay type: biochemical; settings: liposome assay; read-out: DGK alpha LIPGLO IC50

human DGKζ, sequence (Q13574 other isoform, or with tags, fused parts or gaps): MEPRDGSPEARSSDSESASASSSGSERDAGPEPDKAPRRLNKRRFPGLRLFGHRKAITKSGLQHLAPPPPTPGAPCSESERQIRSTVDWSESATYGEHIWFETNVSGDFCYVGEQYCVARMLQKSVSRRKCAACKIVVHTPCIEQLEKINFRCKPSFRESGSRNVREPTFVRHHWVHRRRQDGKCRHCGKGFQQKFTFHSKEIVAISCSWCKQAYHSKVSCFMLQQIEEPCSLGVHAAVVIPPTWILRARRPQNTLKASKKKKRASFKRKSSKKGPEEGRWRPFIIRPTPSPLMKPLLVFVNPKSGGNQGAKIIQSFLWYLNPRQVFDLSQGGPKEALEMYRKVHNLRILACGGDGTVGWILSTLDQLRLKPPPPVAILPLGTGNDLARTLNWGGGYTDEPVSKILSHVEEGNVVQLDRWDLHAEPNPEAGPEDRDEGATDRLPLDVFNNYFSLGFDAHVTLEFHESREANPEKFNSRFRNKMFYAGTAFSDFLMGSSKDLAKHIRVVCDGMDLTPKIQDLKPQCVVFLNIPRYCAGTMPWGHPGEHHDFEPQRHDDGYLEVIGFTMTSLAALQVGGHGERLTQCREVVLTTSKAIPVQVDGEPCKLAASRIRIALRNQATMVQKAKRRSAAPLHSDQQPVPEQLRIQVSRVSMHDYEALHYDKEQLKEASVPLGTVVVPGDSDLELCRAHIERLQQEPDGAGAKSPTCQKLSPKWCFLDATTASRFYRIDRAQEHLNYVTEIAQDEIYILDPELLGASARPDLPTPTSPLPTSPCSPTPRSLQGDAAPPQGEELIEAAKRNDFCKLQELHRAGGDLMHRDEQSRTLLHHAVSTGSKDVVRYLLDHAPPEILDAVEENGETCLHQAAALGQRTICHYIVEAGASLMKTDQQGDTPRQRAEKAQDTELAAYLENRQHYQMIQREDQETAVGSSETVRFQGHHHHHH
T1 sequence (P23743 whole entry, looked up, the tested form may be a part): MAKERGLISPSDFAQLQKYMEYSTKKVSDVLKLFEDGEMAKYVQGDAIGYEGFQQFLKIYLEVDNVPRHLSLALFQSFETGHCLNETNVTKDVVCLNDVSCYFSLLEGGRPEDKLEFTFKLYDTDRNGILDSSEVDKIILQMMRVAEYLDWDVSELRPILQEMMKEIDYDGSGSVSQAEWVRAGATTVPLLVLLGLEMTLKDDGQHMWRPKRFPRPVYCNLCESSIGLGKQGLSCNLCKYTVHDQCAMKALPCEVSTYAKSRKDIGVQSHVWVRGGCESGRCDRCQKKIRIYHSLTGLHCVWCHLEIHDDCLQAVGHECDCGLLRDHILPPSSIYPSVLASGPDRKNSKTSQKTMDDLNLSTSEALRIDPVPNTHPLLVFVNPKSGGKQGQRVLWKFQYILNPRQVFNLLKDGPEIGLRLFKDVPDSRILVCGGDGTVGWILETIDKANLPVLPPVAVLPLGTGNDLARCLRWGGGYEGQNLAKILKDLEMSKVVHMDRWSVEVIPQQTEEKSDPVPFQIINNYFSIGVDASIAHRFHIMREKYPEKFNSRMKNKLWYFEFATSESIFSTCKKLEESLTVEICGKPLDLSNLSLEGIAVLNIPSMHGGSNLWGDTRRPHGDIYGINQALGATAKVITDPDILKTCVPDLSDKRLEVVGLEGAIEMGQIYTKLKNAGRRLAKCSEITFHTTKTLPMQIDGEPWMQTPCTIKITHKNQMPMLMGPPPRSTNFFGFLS

Structure (SMILES)	IC50 (human DGKα [1])	IC50 (human DGKζ)	IC50 (human DGKα [3])	IC50 (whole blood (pERK))	EC50 [2]	EC50 ([2]; Homo sapiens)
CC[C@H]1CN(C(C)c2cccc(OC(F)F)n2)[C@H](CC)CN1c1nc(=O)n(C)c2ccc(C#N)nc12 (stereo partly drawn) [Example 240, 4-((2S,5R)-4-(1-(6-(difluoromethoxy)pyridin-2-yl)ethyl)-2,5-diethylpiperazin-1-yl)-1-methyl-2-oxo-1,2-dihydropyrido[3,2-d]pyrimidine-6-carbonitrile]	73 nM	110 nM	–	290 nM	270 nM	–
CC[C@H]1CN(C(C)c2cccc(OC)n2)[C@H](CC)CN1c1nc(=O)n(C)c2ccc(C#N)nc12 (stereo partly drawn) [Example 215, 4-((2S,5R)-2,5-diethyl-4-(1-(6-methoxypyridin-2-yl)ethyl)piperazin-1-yl)-1-methyl-2-oxo-1,2-dihydropyrido[3,2-d]pyrimidine-6-carbonitrile]	77 nM	110 nM	–	20000 nM	170 nM	–
CC(c1ccc(OC(F)(F)F)cc1F)N1C[C@H](C)N(c2nc(=O)n(C)c3ccc(C#N)nc23)C[C@H]1C (single isomer, unassigned) [Example 143]	–	2120 nM	1330 nM	1140 nM	–	–
CC[C@H]1CN(C(C)c2ccc(CN3CCN(C(C)=O)CC3)cc2)[C@H](CC)CN1c1nc(=O)n(C)c2ccc(C#N)nc12 (stereo partly drawn) [Example 283, 4-((2S,5R)-4-(1-(4-((4-acetylpiperazin-1-yl)methyl)phenyl)ethyl)-2,5-diethylpiperazin-1-yl)-1-methyl-2-oxo-1,2-dihydropyrido[3,2-d]pyrimidine-6-carbonitrile]	200 nM	2430 nM	–	6260 nM	1250 nM	–
CC[C@@H]1CN(c2nc(=O)n(C)c3ccc(C#N)nc23)[C@@H](C)CN1C(c1ccc(Cl)cc1)c1ccccn1 (single isomer, unassigned) [Example 96]	96 nM	–	–	200 nM	57 nM	–
CC[C@@H]1CN(c2nc(=O)n(C)c3ccc(C#N)nc23)[C@@H](C)CN1C(c1ccc(OC(F)(F)F)cc1)c1ccccn1 (single isomer, unassigned) [Example 93]	18 nM	520 nM	–	670 nM	170 nM	–
CC[C@H]1CN(C(C)c2cccc(OC)n2)[C@H](CC)CN1c1nc(=O)n(C)c2ccc(C#N)nc12 (stereo partly drawn) [Example 214, 4-((2S,5R)-2,5-diethyl-4-(1-(6-methoxypyridin-2-yl)ethyl)piperazin-1-yl)-1-methyl-2-oxo-1,2-dihydropyrido[3,2-d]pyrimidine-6-carbonitrile]	2010 nM	6620 nM	–	66 nM	20000 nM	–
CC[C@H]1CN(C(C)c2cnc(N3CCOCC3)nc2)[C@H](CC)CN1c1nc(=O)n(C)c2ccc(C#N)nc12 (stereo partly drawn) [Example 206, 4-((2S,5R)-2,5-diethyl-4-(1-(2-morpholinopyrimidin-5-yl)ethyl)piperazin-1-yl)-1-methyl-2-oxo-1,2-dihydropyrido[3,2-d] pyrimidine-6-carbonitrile]	3980 nM	51000 nM	–	80 nM	20000 nM	–
CC[C@H]1CN(C(C)c2cccc(OC(F)F)n2)[C@H](CC)CN1c1nc(=O)n(C)c2ccc(C#N)nc12 (stereo partly drawn) [Example 241, 4-((2S,5R)-4-(1-(6-(difluoromethoxy)pyridin-2-yl)ethyl)-2,5-diethylpiperazin-1-yl)-1-methyl-2-oxo-1,2-dihydropyrido[3,2-d]pyrimidine-6-carbonitrile]	460 nM	920 nM	–	190 nM	2420 nM	–
CC[C@H]1CN(C(C)c2cccc(OC(F)(F)F)n2)[C@H](CC)CN1c1nc(=O)n(C)c2ccc(C#N)nc12 (stereo partly drawn) [Example 246, 4-((2S,5R)-2,5-diethyl-4-(1-(6-(trifluoromethoxy)pyridin-2-yl)ethyl)piperazin-1-yl)-1-methyl-2-oxo-1,2-dihydropyrido[3,2-d]pyrimidine-6-carbonitrile]	4670 nM	5850 nM	–	440 nM	–	–
CC[C@H]1CN(C(C)c2cccc(OC(F)(F)F)n2)[C@H](CC)CN1c1nc(=O)n(C)c2ccc(C#N)nc12 (stereo partly drawn) [Example 245, 4-((2S,5R)-2,5-diethyl-4-(1-(6-(trifluoromethoxy)pyridin-2-yl)ethyl)piperazin-1-yl)-1-methyl-2-oxo-1,2-dihydropyrido[3,2-d]pyrimidine-6-carbonitrile]	18 nM	290 nM	–	410 nM	–	220 nM
CC[C@H]1CN(C(C)c2ccc(CN3CCC[C@@H](O)C3)cc2)[C@H](CC)CN1c1nc(=O)n(C)c2ccc(C#N)nc12 (stereo partly drawn) [Example 289, 4-((2S,5R)-2,5-diethyl-4-(1-(4-(((R)-3-hydroxypiperidin-1-yl)methyl)phenyl)ethyl)piperazin-1-yl)-1-methyl-2-oxo-1,2-dihydropyrido[3,2-d]pyrimidine-6-carbonitrile]	2700 nM	8640 nM	–	350 nM	–	5720 nM
CC[C@H]1CN(C(C)c2ccc(CN3CC4(COC4)C3)cc2)[C@H](CC)CN1c1nc(=O)n(C)c2ccc(C#N)nc12 (stereo partly drawn) [Example 280, 4-((2S,5R)-4-(1-(4-((2-oxa-6-azaspiro[3.3]heptan-6-yl)methyl)phenyl)ethyl)-2,5-diethylpiperazin-1-yl)-1-methyl-2-oxo-1,2-dihydropyrido[3,2-d]pyrimidine-6-carbonitrile]	42700 nM	125000 nM	–	150 nM	–	–

Continued, in another order:

IC50 (human DGKα [1])	IC50 (human DGKζ)	IC50 (human DGKα [3])	Structure (SMILES)	IC50 (whole blood (pERK))	EC50 [2]	EC50 ([2]; Homo sapiens)
41 nM	100 nM	–	CCC(c1ccc(CN2CCOCC2)cc1)N1C[C@H](CC)N(c2nc(=O)n(C)c3ccc(C#N)nc23)C[C@H]1CC (stereo partly drawn) [Example 267, 4-((2S,5R)-2,5-diethyl-4-(1-(4-(morpholinomethyl)phenyl)propyl)piperazin-1-yl)-1-methyl-2-oxo-1,2-dihydropyrido[3,2-d]pyrimidine-6-carbonitrile]	1020 nM	45 nM	–
14 nM	310 nM	–	CC[C@H]1CN(C(C)c2ccc(OC(C)(C)COC)cc2)[C@H](CC)CN1c1nc(=O)n(C)c2ccc(C#N)nc12 (some centres unmarked) [Example 188]	270 nM	73 nM	–
2 nM	13 nM	–	CCC(c1ccc(OC(F)F)cc1F)N1C[C@H](CC)N(c2nc(=O)n(C)c3ccc(C#N)nc23)C[C@H]1CC (stereo partly drawn) [Example 232, 4-((2S,5R)-4-(1-(4-(difluoromethoxy)-2-fluorophenyl)propyl)-2,5-diethylpiperazin-1-yl)-1-methyl-2-oxo-1,2-dihydropyrido[3,2-d]pyrimidine-6-carbonitrile]	44 nM	44 nM	–
58 nM	120 nM	–	CCC(c1ccc(OC2CC2)cc1)N1C[C@H](CC)N(c2nc(=O)n(C)c3ccc(C#N)nc23)C[C@H]1CC (stereo partly drawn) [Example 255, 4-((2S,5R)-4-(1-(4-cyclopropoxyphenyl)propyl)-2,5-diethylpiperazin-1-yl)-1-methyl-2-oxo-1,2-dihydropyrido[3,2-d]pyrimidine-6-carbonitrile]	540 nM	–	–
630 nM	920 nM	–	CCC(c1ccc(OCC2CC2)cc1F)N1C[C@H](CC)N(c2nc(=O)n(C)c3ccc(C#N)nc23)C[C@H]1CC (stereo partly drawn) [Example 199, 4-((2S,5R)-4-(1-(4-(cyclopropylmethoxy)-2-fluorophenyl)propyl)-2,5-diethylpiperazin-1-yl)-1-methyl-2-oxo-1,2-dihydropyrido[3,2-d]pyrimidine-6-carbonitrile]	11300 nM	2060 nM	–
270 nM	780 nM	–	CCC(c1ccc(C(C)(C)C#N)cc1)N1C[C@H](CC)N(c2nc(=O)n(C)c3ccc(C#N)nc23)C[C@H]1CC (stereo partly drawn) [Example 252, 4-((2S,5R)-4-(1-(4-(2-cyanopropan-2-yl)phenyl)propyl)-2,5-diethylpiperazin-1-yl)-1-methyl-2-oxo-1,2-dihydropyrido[3,2-d]pyrimidine-6-carbonitrile]	4280 nM	–	–
34 nM	18 nM	–	CCC(c1ccc(C(C)(C)C#N)cc1)N1C[C@H](CC)N(c2nc(=O)n(C)c3ccc(C#N)nc23)C[C@H]1CC (stereo partly drawn) [Example 251, 4-((2S,5R)-4-(1-(4-(2-cyanopropan-2-yl)phenyl)propyl)-2,5-diethylpiperazin-1-yl)-1-methyl-2-oxo-1,2-dihydropyrido[3,2-d]pyrimidine-6-carbonitrile]	1580 nM	–	–
36 nM	59 nM	–	CCC(c1ccc(OC(C)C)cc1)N1C[C@H](CC)N(c2nc(=O)n(C)c3ccc(C#N)nc23)C[C@H]1CC (stereo partly drawn) [Example 234, 4-((2S,5R)-2,5-diethyl-4-(1-(4-isopropoxyphenyl)propyl)piperazin-1-yl)-1-methyl-2-oxo-1,2-dihydropyrido[3,2-d] pyrimidine-6-carbonitrile]	80 nM	–	–
9 nM	58 nM	–	CCC(c1ccc(C)cc1)N1C[C@H](CC)N(c2nc(=O)n(C)c3ccc(C#N)nc23)C[C@H]1CC (stereo partly drawn) [Example 236, 4-((2S,5R)-2,5-diethyl-4-(1-(p-tolyl)propyl)piperazin-1-yl)-1-methyl-2-oxo-1,2-dihydropyrido[3,2-d]pyrimidine-6-carbonitrile]	44 nM	12 nM	–
